According to patent US20190038628A1, “USE OF INHIBITORS OF THE ACTIVITY OR FUNCTION OF PI3K FOR THE TREATMENT OF PRIMARY SJOGREN'S SYNDROME” (Novartis AG, priority 2016, published 2019):

System: BPMC derived from human healthy volunteers
Assay: Chemokines in supernatant of PBMC from healthy volunteers stimulated with CpG or anti-IgM (summary statement)
Type: cell-based
From the text: Phosphorylated Akt (pAkt) is a downstream effector of PI3K delta activation. 1-{(S)-3-[6-(6-Methoxy-5-trifluoromethyl-pyridin-3-yl)-5,6,7,8-tetrahydro-pyrido[4,3-d]pyrimidin-4-ylamino]-pyrrolidin-1-yl}-propan-1-one or pharmaceutically acceptable salts thereof is a PI3K inhibitor with a selectivity for the PI3K delta isoform (WO2012/004299). […] 1) Chronic B-cell hyperactivity is a consistent and prominent immunoregulatory abnormality in pSS (Hansen A et al, Arthritis Research & Therapy 2007; 9; 218). […] 1-{(S)-3-[6-(6-Methoxy-5-trifluoromethyl-pyridin-3-yl)-5,6,7,8-tetrahydro-pyrido[4,3-d]pyrimidin-4-ylamino]-pyrrolidin-1-yl}-propan-1-one or pharmaceutically acceptable salts thereof inhibits CXCL13 (BCA-1, BLC), but also of CXCL10 (IP-10) and CCL4 (MIP-1beta) in supernatant of BPMC derived from human healthy volunteers stimulated with CpG or anti-IgM. • 3) Characteristic features in pSS include the formation of ectopic lymphoid tissue with germinal center (GC)-like structures. In healthy individuals, GCs are generated from primary B-cell follicles of secondary lymphoid organs during T-cell-dependent immune responses (Hansen A et al, Arthritis Research & Therapy 2007; 9; 218).

CCC(=O)N1CC[C@H](Nc2ncnc3c2CN(c2cnc(OC)c(C(F)(F)F)c2)CC3)C1 [Compound A, 1-{(S)-3-[6-(6-Methoxy-5-trifluoromethyl-pyridin-3-yl)-5,6,7,8-tetrahydro-pyrido[4,3-d]pyrimidin-4-ylamino]-pyrrolidin-1-yl}-propan-1-one]
inhibits: CCL4 (MIP-1beta) in supernatant (in words) | CXCL10 (IP-10) in supernatant (in words) | CXCL13 (BCA-1, BLC) in supernatant (in words)
